Drawing on PubChem BioAssay (NCI), this text covers GI50 and TGI for six compounds.

Each structure is given as a SMILES string.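 Dose response: 5 concentrations. Exposure: 48 h. Format: 96-well plates. Endpoint: linear interpolation; highest concentration if not reached. GI50: concentration for 50% inhibition of growth. TGI denotes the concentration required for complete inhibition of growth.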

Among the test systems are A549 NSCLC; EKVX NSCLC; HCC-2998 colon; K-562 leukemia; KM12 colon; NCI-H522 lung; NCI/ADR-RES ovarian; SN12C renal; SNB-75 CNS; UO-31 renal.
What all share (test): NCI anticancer screen, dose series, 48 h

In the case of `ClC1=C(Cl)C(Cl)=C(Cl)C1=C/C=C/c1ccccc1`, the GI50 was 0.339 µM with A549 NSCLC; 0.215 µM in the assay on EKVX NSCLC; 0.229 µM in the assay on HCC-2998 colon; 0.439 µM in the assay with K-562 leukemia; 0.272 µM in the assay on KM12 colon; 0.216 µM with NCI-H522 lung. Further, the GI50 is 0.393 µM in the assay with NCI/ADR-RES ovarian, 0.407 µM in the assay with SN12C renal, 0.251 µM in the assay with SNB-75 CNS and 0.201 µM in the assay with UO-31 renal. For the same compound, the TGI is 1.24 µM in the assay with A549 NSCLC; 1.23 µM with EKVX NSCLC; 0.464 µM in the assay on HCC-2998 colon; over 100 µM in the assay with K-562 leukemia; 0.684 µM in the assay with KM12 colon; 0.562 µM with NCI-H522 lung. In addition, the values for the TGI with SN12C renal, with SNB-75 CNS and in the assay with UO-31 renal were 2.15 µM, 1.85 µM and 0.756 µM, respectively.

In the case of `COc1ccc(C(=O)c2ccc(OC)c(OC)c2OC)cc1`, the GI50 was 2.01 µM in the assay on A549 NSCLC; 4.77 µM in the assay with EKVX NSCLC; 2.76 µM with HCC-2998 colon; 0.351 µM in the assay with K-562 leukemia; 0.492 µM in the assay on KM12 colon; 1.81 µM in the assay with NCI-H522 lung. Further, the GI50 in the assay with NCI/ADR-RES ovarian is 0.693 µM; with SN12C renal it was 8.33 µM; in the assay on SNB-75 CNS it was 1.76 µM; in the assay on UO-31 renal, 4.65 µM. Moreover, the TGI in the assay on A549 NSCLC is over 100 µM; in the assay with EKVX NSCLC it was over 100 µM; with HCC-2998 colon it was over 100 µM; in the assay on K-562 leukemia, over 100 µM; in the assay on KM12 colon, 25.2 µM; in the assay with NCI-H522 lung, 6.03 µM. Moreover, the TGI in the assay with NCI/ADR-RES ovarian is 7.8 µM; in the assay with SN12C renal, over 100 µM; with SNB-75 CNS, over 100 µM; with UO-31 renal, over 100 µM.

Consider `CCOc1ccc([C@@H]2[C@@H](Oc3ccccc3)C(=O)N2c2cc(OC)c(OC)c(OC)c2)cc1`, for which the GI50 is 0.215 µM in the assay on A549 NSCLC; 0.0937 µM in the assay with EKVX NSCLC; 0.468 µM in the assay on HCC-2998 colon; 0.0367 µM in the assay on K-562 leukemia; 0.0525 µM in the assay on KM12 colon; 0.0323 µM in the assay on NCI-H522 lung. In addition, the GI50 is 0.06 µM with NCI/ADR-RES ovarian, 0.263 µM in the assay with SN12C renal, 0.037 µM in the assay on SNB-75 CNS and 0.613 µM in the assay with UO-31 renal. The TGI was over 100 µM in the assay with A549 NSCLC; over 100 µM with EKVX NSCLC; over 100 µM in the assay on HCC-2998 colon; over 100 µM in the assay with K-562 leukemia; over 100 µM in the assay on KM12 colon; 0.371 µM in the assay on NCI-H522 lung. Further, the TGI in the assay with NCI/ADR-RES ovarian, with SN12C renal, in the assay on SNB-75 CNS and in the assay on UO-31 renal was over 100 µM each time.

In the case of `COc1ccc(Nn2c(SCC(=O)Nc3nc(-c4ccc(Cl)cc4)cs3)nc(C)c2C)cc1`, the GI50 was 3.32 µM with A549 NSCLC; 1.92 µM in the assay on EKVX NSCLC; 3.07 µM in the assay on HCC-2998 colon; 1.58 µM in the assay with K-562 leukemia; 1.84 µM in the assay with KM12 colon; 5.05 µM in the assay on NCI-H522 lung. The GI50 is 2.89 µM with NCI/ADR-RES ovarian, 2.3 µM in the assay with SN12C renal, 4.8 µM in the assay with SNB-75 CNS and 2.62 µM with UO-31 renal. In addition, the TGI in the assay on A549 NSCLC was over 100 µM; in the assay with EKVX NSCLC, over 100 µM; with HCC-2998 colon it was 9.91 µM; with K-562 leukemia it was over 100 µM; in the assay with KM12 colon, 11.1 µM; in the assay with NCI-H522 lung it was over 100 µM. Further, the TGI in the assay on NCI/ADR-RES ovarian was over 100 µM; in the assay on SN12C renal it was 7.52 µM; in the assay with SNB-75 CNS it was over 100 µM; in the assay on UO-31 renal, over 100 µM.

For `Cc1cccc(Oc2nccc(-c3c(-c4ccc(F)cc4)ncn3C3CCNCC3)n2)c1C`, the GI50 in the assay with A549 NSCLC was over 14.3 µM; in the assay with EKVX NSCLC, over 14 µM; in the assay on HCC-2998 colon, 4.22 µM; with K-562 leukemia, 5.68 µM; in the assay on KM12 colon it was 11.2 µM; in the assay with NCI-H522 lung, 9.84 µM. Moreover, the GI50 in the assay on NCI/ADR-RES ovarian was 11.5 µM; in the assay with SN12C renal, 9.16 µM; in the assay with SNB-75 CNS, 5.58 µM; in the assay with UO-31 renal, 4.97 µM. For the same compound, the TGI is over 25 µM in the assay with A549 NSCLC; over 25 µM with EKVX NSCLC; 8.96 µM in the assay on HCC-2998 colon; 16 µM in the assay on K-562 leukemia; over 23.8 µM in the assay with KM12 colon; over 16.2 µM in the assay on NCI-H522 lung. Besides, the TGI in the assay with NCI/ADR-RES ovarian was over 25 µM; in the assay on SN12C renal, over 25 µM; in the assay with SNB-75 CNS, over 17.5 µM; with UO-31 renal, over 19.9 µM.

In the case of `CCNCC(=O)O[C@]1(CC)C(=O)OCc2c1cc1n(c2=O)Cc2cc3ccccc3nc2-1`, the TGI was 13.5 µM in the assay with A549 NSCLC; over 100 µM in the assay on EKVX NSCLC; 6.88 µM in the assay with HCC-2998 colon; over 100 µM in the assay on K-562 leukemia; 13.4 µM with KM12 colon; 7.97 µM in the assay with NCI-H522 lung. In addition, the TGI in the assay with NCI/ADR-RES ovarian amounted to 1.39 µM; in the assay with SN12C renal, 11.2 µM; in the assay on SNB-75 CNS, 7.91 µM; in the assay with UO-31 renal, 1.7 µM.
